Measurements: PubChem BioAssay (NCI)
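Cultured in 96-well plates, cells were exposed to test compound for 48 hours across five concentrations. TGI marks complete inhibition of growth.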

Key:
Assay in all cases: growth of human tumour cells (NCI), 48 h
786-0 renal = system: 786-0 renal
A498 renal = system: A498 renal
A549 NSCLC = system: A549 NSCLC
ACHN renal = system: ACHN renal
CAKI-1 renal = system: CAKI-1 renal
CCRF-CEM leukemia = system: CCRF-CEM leukemia
COLO 205 colon = system: COLO 205 colon
DLD-1 colon = system: DLD-1 colon
DMS 114 small cell lung = system: DMS 114 small cell lung
DMS 273 small cell lung = system: DMS 273 small cell lung
EKVX NSCLC = system: EKVX NSCLC
HCT-116 colon = system: HCT-116 colon
HCT-15 colon = system: HCT-15 colon
HL-60(TB) leukemia = system: HL-60(TB) leukemia
HOP-62 NSCLC = system: HOP-62 NSCLC
HOP-92 NSCLC = system: HOP-92 NSCLC
HT29 colon = system: HT29 colon
IGROV1 ovarian = system: IGROV1 ovarian
K-562 leukemia = system: K-562 leukemia
KM20L2 colon = system: KM20L2 colon
LOX IMVI melanoma = system: LOX IMVI melanoma
LXFL 529 NSCLC = system: LXFL 529 NSCLC
M14 melanoma = system: M14 melanoma
M19-MEL melanoma = system: M19-MEL melanoma
MALME-3M melanoma = system: MALME-3M melanoma
NCI-H226 lung = system: NCI-H226 lung
NCI-H23 lung = system: NCI-H23 lung
NCI-H460 lung = system: NCI-H460 lung
NCI-H522 lung = system: NCI-H522 lung
OVCAR-3 ovarian = system: OVCAR-3 ovarian
OVCAR-4 ovarian = system: OVCAR-4 ovarian
OVCAR-5 ovarian = system: OVCAR-5 ovarian
OVCAR-8 ovarian = system: OVCAR-8 ovarian
RXF 393 renal = system: RXF 393 renal
SF-268 CNS = system: SF-268 CNS
SF-295 CNS = system: SF-295 CNS
SF-539 CNS = system: SF-539 CNS
SK-MEL-2 melanoma = system: SK-MEL-2 melanoma
SK-MEL-28 melanoma = system: SK-MEL-28 melanoma
SK-MEL-5 melanoma = system: SK-MEL-5 melanoma
SK-OV-3 ovarian = system: SK-OV-3 ovarian
SN12C renal = system: SN12C renal
SNB-19 CNS = system: SNB-19 CNS
SNB-75 CNS = system: SNB-75 CNS
SNB-78 CNS = system: SNB-78 CNS
SW-620 colon = system: SW-620 colon
TK-10 renal = system: TK-10 renal
U251 CNS = system: U251 CNS
UACC-257 melanoma = system: UACC-257 melanoma
UACC-62 melanoma = system: UACC-62 melanoma
UO-31 renal = system: UO-31 renal
XF 498 CNS = system: XF 498 CNS
HCC-2998 colon = system: HCC-2998 colon
KM12 colon = system: KM12 colon
MOLT-4 leukemia = system: MOLT-4 leukemia
RPMI-8226 leukemia = system: RPMI-8226 leukemia

For `Cc1ccc(N=NC2S/C(=C(\C#N)c3nc4ccccc4[nH]3)N(c3ccccc3)C2=O)cc1` (stereo not given), the TGI (786-0 renal) was 71.9 µM, the TGI (A498 renal) was over 100 µM and the TGI (A549 NSCLC) was over 100 µM. The TGI (ACHN renal) was over 100 µM, the TGI (CAKI-1 renal) was over 100 µM and the TGI (CCRF-CEM leukemia) was over 100 µM. It also gave a TGI (COLO 205 colon) of over 100 µM, a TGI (DLD-1 colon) of over 100 µM and a TGI (DMS 114 small cell lung) of over 100 µM. It also gave a TGI (DMS 273 small cell lung) of over 100 µM, a TGI (EKVX NSCLC) of over 100 µM and a TGI (HCT-116 colon) of over 100 µM. The TGI (HCT-15 colon) was over 100 µM, the TGI (HL-60(TB) leukemia) was over 100 µM and the TGI (HOP-62 NSCLC) was 81.1 µM. It also gave a TGI (HOP-92 NSCLC) of over 100 µM, a TGI (HT29 colon) of over 100 µM and a TGI (IGROV1 ovarian) of over 100 µM. For the same compound, the TGI (K-562 leukemia) was over 100 µM, the TGI (KM20L2 colon) was over 100 µM and the TGI (LOX IMVI melanoma) was over 100 µM. It also gave a TGI (LXFL 529 NSCLC) of over 100 µM, a TGI (M14 melanoma) of over 100 µM and a TGI (M19-MEL melanoma) of over 100 µM. For the same compound, the TGI (MALME-3M melanoma) was over 100 µM, the TGI (NCI-H226 lung) was over 100 µM and the TGI (NCI-H23 lung) was over 100 µM. For the same compound, the TGI (NCI-H460 lung) was over 100 µM, the TGI (NCI-H522 lung) was over 100 µM and the TGI (OVCAR-3 ovarian) was over 100 µM. It also gave a TGI (OVCAR-4 ovarian) of over 100 µM, a TGI (OVCAR-5 ovarian) of over 100 µM and a TGI (OVCAR-8 ovarian) of over 100 µM. It also gave a TGI (RXF 393 renal) of 81.5 µM, a TGI (SF-268 CNS) of over 100 µM and a TGI (SF-295 CNS) of over 100 µM. The TGI (SF-539 CNS) was over 100 µM, the TGI (SK-MEL-2 melanoma) was over 100 µM and the TGI (SK-MEL-28 melanoma) was over 100 µM. For the same compound, the TGI (SK-MEL-5 melanoma) was over 100 µM, the TGI (SK-OV-3 ovarian) was over 100 µM and the TGI (SN12C renal) was over 100 µM. The TGI (SNB-19 CNS) was over 100 µM, the TGI (SNB-75 CNS) was 82.5 µM and the TGI (SNB-78 CNS) was over 100 µM. For the same compound, the TGI (SW-620 colon) was over 100 µM, the TGI (TK-10 renal) was over 100 µM and the TGI (U251 CNS) was over 100 µM. The TGI (UACC-257 melanoma) was over 100 µM, the TGI (UACC-62 melanoma) was over 100 µM and the TGI (UO-31 renal) was over 100 µM. For the same compound, the TGI (XF 498 CNS) was over 100 µM.

Work on `NC(=O)c1cccc(C2OC(COP(=O)(O)O)C(O)C2O)c1` (stereo not given) yielded a TGI (786-0 renal) of over 50 µM, a TGI (A498 renal) of over 50 µM and a TGI (A549 NSCLC) of over 50 µM. It also gave a TGI (ACHN renal) of over 50 µM, a TGI (CAKI-1 renal) of over 50 µM and a TGI (CCRF-CEM leukemia) of over 50 µM. For the same compound, the TGI (COLO 205 colon) was over 50 µM, the TGI (DLD-1 colon) was over 50 µM and the TGI (DMS 273 small cell lung) was over 50 µM. The TGI (EKVX NSCLC) was over 50 µM, the TGI (HCC-2998 colon) was over 50 µM and the TGI (HCT-116 colon) was over 50 µM. It also gave a TGI (HCT-15 colon) of over 50 µM, a TGI (HL-60(TB) leukemia) of over 50 µM and a TGI (HOP-62 NSCLC) of over 50 µM. It also gave a TGI (HT29 colon) of over 50 µM, a TGI (IGROV1 ovarian) of over 50 µM and a TGI (K-562 leukemia) of over 50 µM. For the same compound, the TGI (KM12 colon) was over 50 µM, the TGI (KM20L2 colon) was over 50 µM and the TGI (LOX IMVI melanoma) was over 50 µM. The TGI (LXFL 529 NSCLC) was over 50 µM, the TGI (M14 melanoma) was over 50 µM and the TGI (M19-MEL melanoma) was over 50 µM. The TGI (MALME-3M melanoma) was over 50 µM, the TGI (MOLT-4 leukemia) was over 50 µM and the TGI (NCI-H226 lung) was over 50 µM. For the same compound, the TGI (NCI-H23 lung) was over 50 µM, the TGI (NCI-H460 lung) was over 50 µM and the TGI (NCI-H522 lung) was over 50 µM. It also gave a TGI (OVCAR-3 ovarian) of over 50 µM, a TGI (OVCAR-5 ovarian) of over 50 µM and a TGI (OVCAR-8 ovarian) of over 50 µM. The TGI (RPMI-8226 leukemia) was over 50 µM, the TGI (RXF 393 renal) was over 50 µM and the TGI (SF-268 CNS) was over 50 µM. It also gave a TGI (SF-295 CNS) of over 50 µM, a TGI (SF-539 CNS) of over 50 µM and a TGI (SK-MEL-2 melanoma) of over 50 µM. It also gave a TGI (SK-MEL-28 melanoma) of over 50 µM, a TGI (SK-MEL-5 melanoma) of over 50 µM and a TGI (SK-OV-3 ovarian) of over 50 µM. For the same compound, the TGI (SN12C renal) was over 50 µM, the TGI (SNB-19 CNS) was over 50 µM and the TGI (SNB-75 CNS) was over 50 µM. For the same compound, the TGI (SNB-78 CNS) was over 50 µM, the TGI (SW-620 colon) was over 50 µM and the TGI (TK-10 renal) was over 50 µM. For the same compound, the TGI (U251 CNS) was over 50 µM, the TGI (UACC-257 melanoma) was over 50 µM and the TGI (UACC-62 melanoma) was over 50 µM. The TGI (UO-31 renal) was over 50 µM and the TGI (XF 498 CNS) was over 50 µM.
